Results published in patent US20060122276A1, “Agent for inhibiting membrane virus reproduction, method for the production thereof, pharmaceutical composition and method for inhibiting viral infections” (priority 2003, published 2006).
Like-named read-outs stand apart in the source and are kept apart here.

Experiments:
[1] = test system: herpes simplex virus (HSV-1); test: Antiviral activity with respect to HSV-1 in VERO cells; format: cell-based, type 1, strain L2; settings: 100 TCD50, 48 hours after the infection
Excerpt: Herpes simplex virus, type 1, strain L2, replicated in VERO cells was used in the investigation.
[…] acyclovir was used as positive control

[2] = test system: lymphoblastoid human cells MT-4; test: Cytotoxicity on non-infected human lymphoblastoid cells; format: cell-based; settings: for Cytotoxic action of the preparation on cells: 1, 10 μg/ml and higher (to 100 μg/ml)
HIV-1 = settings: for Protection of MT-4 cells against viral cytopathic action of HIV-1: HIV-1 100 TCD50
Protocol: Cells Reinoculated humans lymphoblastoid cells MT-4 were used. […] The viability of the cells was determined from the color of a 0.4% solution of trypan blue.
Retrovir (azidothymidin) produced by GlaxoWellcome (Great Britain) was used as positive control.
The Antiviral activity of the preparations was investigated on a model of lymphoblastoid cells in a plastic 24-cell plate. The virus dose was 100 TCD50 (50% tissue cytopathic dose). […] The activity of the preparation was determined from the inhibition of the virus-induced cytopathic action (CPA) in the cell cultures and the virus antigen level in the culture fluid by immunoenzymatic analysis.

[3] = 0.25 μg/ml, HIV-1-infected lymphoblastoid cells, 5th day
[4] = 0.5 μg/ml, HIV-1-infected lymphoblastoid cells, 5th day
[5] = 1 μg/ml, 2 hrs of contact, washing off of cells No, 6th day
[6] = 1 μg/ml, 2 hrs of contact, washing off of cells Yes, 6th day
[7] = 1.0 μg/ml, HIV-1-infected lymphoblastoid cells, 5th day
[8] = 1 μg/ml, exposure 1 hr, washing off of cells Yes, 6th day
[9] = 1 μg/ml, exposure 2 hrs, washing off of cells Yes, 6th day
[10] = 1 μg/ml, exposure 24 hrs, washing off of cells Yes, 6th day
[11] = 1 μg/ml, exposure during the entire experiment, washing off of cells No, 6th day
[12] = 10 μg/ml, 2 hrs of contact, washing off of cells No, 6th day
[13] = 10 μg/ml, 2 hrs of contact, washing off of cells Yes, 6th day
[14] = 10 μg/ml, HIV-1-infected lymphoblastoid cells, 5th day
[15] = 10 μg/ml, exposure 2 hrs (first such line, r25), washing off of cells Yes, 6th day
[16] = 10 μg/ml, exposure 2 hrs (second such line, r29), washing off of cells Yes, 6th day
[17] = 10 μg/ml, exposure 24 hrs, washing off of cells Yes, 6th day
[18] = 10 μg/ml, exposure during the entire experiment, washing off of cells No, 6th day
[19] = 100 μg/ml, HIV-1-infected lymphoblastoid cells, 5th day
[20] = preparation 1 hr after infecting, HIV-1

sodium salt of fullerene-polyamino-caproic acid
Protection of VERO cells against the cytodestructive action of HSV-1 ([1]; 10 μg/ml): full protection
Protection of VERO cells from the cytodestructive action of HSV-1 ([1]; 1.0, 10 and 50 μg/ml, introduced 30 and 60 minutes after the infection): full protection
Viability of cells, % ([2]; 100 μg/ml, non-infected human lymphoblastoid cells (cell control 93)): 85%
Number of cells in 1 ml × 1000 ([2]; 100 μg/ml, non-infected human lymphoblastoid cells (cell control 966)): 866 in 1 ml × 1000
Cytotoxic action of the preparation on cells [2]: no cytotoxic action
Cytotoxic action of the preparation on cells ([2]; listed as sodium salt of fullerene-polyamino-propanoic acid): not detected
CPE/syncytia, % (HIV-1; [3]): 50%
Number of cells in 1 ml × 1000 (HIV-1; [3]): 1000 in 1 ml × 1000
CPE/syncytia, % (HIV-1; [4]): 25%
Number of cells in 1 ml × 1000 (HIV-1; [4]): 1299 in 1 ml × 1000
CPE/syncytia, + (HIV-1; [5]): 0 +
Number of cells × 10^3 ml (HIV-1; [5]): 2200 × 10^3 ml
CPE/syncytia, + (HIV-1; 1 μg/ml, 2 hrs of contact, washing off of cells No, 8th day): 0 +
CPE/syncytia, + (HIV-1; [6]): 2.5+
Number of cells × 10^3 ml (HIV-1; [6]): 1700 × 10^3 ml
CPE/syncytia, + (HIV-1; 1 μg/ml, 2 hrs of contact, washing off of cells Yes, 8th day): 3.5+
Protection of MT-4 cells against viral cytopathic action of HIV-1 (HIV-1; 1 μg/ml): full protection
Protection of MT-4 cells against viral cytopathic action of HIV-1 (HIV-1; 1 μg/ml, listed as sodium salt of fullerene-polyamino-propanoic acid): Full protection
CPE/syncytia, % (HIV-1; [7]): 0%
Number of cells in 1 ml × 1000 (HIV-1; [7]): 1466 in 1 ml × 1000
CPE/syncytia, + (HIV-1; [8]): 0.5+
Number of cells × 10^3 ml (HIV-1; [8]): 2000 × 10^3 ml
CPE/syncytia, + (HIV-1; 1 μg/ml, exposure 1 hr, washing off of cells Yes, 8th day): 1.5+
CPE/syncytia, + (HIV-1; [9]): 0.5+
Number of cells × 10^3 ml (HIV-1; [9]): 1700 × 10^3 ml
CPE/syncytia, + (HIV-1; 1 μg/ml, exposure 2 hrs, washing off of cells Yes, 8th day): 1+
CPE/syncytia, + (HIV-1; [10]): 0.1+
Number of cells × 10^3 ml (HIV-1; [10]): 2100 × 10^3 ml
CPE/syncytia, + (HIV-1; 1 μg/ml, exposure 24 hrs, washing off of cells Yes, 8th day): 0.5+
CPE/syncytia, + (HIV-1; [11]): 0 +
Number of cells × 10^3 ml (HIV-1; [11]): 2300 × 10^3 ml
CPE/syncytia, + (HIV-1; 1 μg/ml, exposure during the entire experiment, washing off of cells No, 8th day): 0 +
CPE/syncytia, + (HIV-1; [12]): 0 +
Number of cells × 10^3 ml (HIV-1; [12]): 2600 × 10^3 ml
CPE/syncytia, + (HIV-1; 10 μg/ml, 2 hrs of contact, washing off of cells No, 8th day): 0 +
CPE/syncytia, + (HIV-1; [13]): 1.75+
Number of cells × 10^3 ml (HIV-1; [13]): 1500 × 10^3 ml
CPE/syncytia, + (HIV-1; 10 μg/ml, 2 hrs of contact, washing off of cells Yes, 8th day): 3.0+
CPE/syncytia, % (HIV-1; [14]): 0%
Number of cells in 1 ml × 1000 (HIV-1; [14]): 1633 in 1 ml × 1000
CPE/syncytia, + (HIV-1; [15]): 0 +
Number of cells × 10^3 ml (HIV-1; [15]): 2300 × 10^3 ml
CPE/syncytia, + (HIV-1; 10 μg/ml, exposure 2 hrs (first such line, r25), washing off of cells Yes, 8th day): 0 +
CPE/syncytia, + (HIV-1; [16]): 0 +
Number of cells × 10^3 ml (HIV-1; [16]): 1800 × 10^3 ml
CPE/syncytia, + (HIV-1; 10 μg/ml, exposure 2 hrs (second such line, r29), washing off of cells Yes, 8th day): 0 +
CPE/syncytia, + (HIV-1; [17]): 0 +
Number of cells × 10^3 ml (HIV-1; [17]): 2300 × 10^3 ml
CPE/syncytia, + (HIV-1; 10 μg/ml, exposure 24 hrs, washing off of cells Yes, 8th day): 0 +
CPE/syncytia, + (HIV-1; [18]): 0 +
Number of cells × 10^3 ml (HIV-1; [18]): 2500 × 10^3 ml
CPE/syncytia, + (HIV-1; 10 μg/ml, exposure during the entire experiment, washing off of cells No, 8th day): 0 +
CPE/syncytia, % (HIV-1; [19]): 0%
Number of cells in 1 ml × 1000 (HIV-1; [19]): 1500 in 1 ml × 1000
CPE/syncytia, % (HIV-1; [20]): 0%
Number of cells in 1 ml × 1000 (HIV-1; [20]): 1100 in 1 ml × 1000
